Read-outs that look alike come from different tables or passages of the source.
Experiments:
Adrener. = test: FRET nano-sensor measurement of cytosolic cAMP in single cultured astrocytes, adrenergic stimulus; assay type: cell-based, rat
Description: (§1) As described in the previous European Patent Application No. 13 173 446, the cAMP level may, be determined by fluorescence nano-sensors in the astrocyte. In particular, the cAMP level may be determined by expressing the plasmid for FRET construct Epac1-camps or AKAR2. FRET signal is reported as the ratio of YFP to CFP fluorescence signal. The change in FRET signals reflects change in [cAMP]i. The inventions comprises of using MD and cAMP measurements.
(§2) As described in the previous European Patent Application No. 13 173 446, the cAMP level may, for instance, be determined by fluorescence nano-sensors in the astrocyte. In particular, the cAMP level may be determined by expressing the plasmid for FRET construct Epac1-camps or AKAR2. FRET construct are examined with immersion objective for fluorescent light and confocal microscope or other fluorescent microscope. Cells were excited at 458 nm or other suitable excitation wavelength of light and images are acquired every time interval. Emission spectra are collected from spectral detector or other suitable wavelength of light. Two-channel (CFP and YFP) images are generated from light detector. YFP and CFP fluorescence intensities are quantified within a region of interest selected for individual cell expressing Epac1-camps or AKAR2 using software. FRET signal is reported as the ratio of YFP to CFP fluorescence signal after subtracting the background fluorescence from both YFP and CFP signals. The change in FRET signals reflects change in [cAMP]i.
(§3) Cultured astrocytes, e.g. isolated as previously described by Schwartz & Wilson (Glia. 1992; 5(1):75-80) or any other cell type isolated from animal tissues or clonal cell lines derived from human or animal sources are seeded onto coverslips and maintained in an adequate cell cultured medium. All chemicals were from Sigma Aldrich (St. Louis, Mo., USA) unless otherwise noted.
(§4) Astrocytes expressing Epac1-camps or AKAR2 FRET construct were examined with a Plan NeoFluoar 40×/1.3 Oil DIC immersion objective (Carl Zeiss, Jena, Germany) and 2-fold zoom factor using Zeiss LSM510 META confocal microscope (Carl Zeiss, Jena, Germany). Cells were excited at 458 nm and images (512×512) were acquired every 3.5 s or 7 s using Lambda stack acquisition. Emission spectra were collected from META detector in eight channels (lambda stack) ranging from 470 nm to 545 nm, each with a 10.7-nm width. Two-channel (CFP and YFP) images were generated from lambda stacks by analytical software “Extract channels”. Channels with emission spectra 470- and 481-nm and emission spectra 513-, 524-, and 534-nm were extracted to CFP channel and YFP channel, respectively. YFP and CFP fluorescence intensities were quantified within a region of interest selected for individual cell expressing Epac1-camps or AKAR2 using LSM 510 META software. In the graphs, FRET signal is reported as the ratio of YFP to CFP fluorescence signal after subtracting the background fluorescence from both YFP and CFP signals using Sigma Plot.
(§5) The values of FRET signals were normalized (set to 1.0) at the onset of the experiments and averaged. The decrease in FRET signals in Epac1-camps experiments reflects an increase in [cAMP]i and the increase in FRET signals in AKAR2 experiments reflects increase in [cAMP]i.
(§6) Initially, astrocytes were kept in standard extracellular solution (10 mM Hepes/NaOH, pH 7.2, 10 mM D-glucose, 131.8 mM NaCl, 1.8 mM CaCl2, 2 mM MgCl2, and 5 mM KCl) and then treated with various reagents following a 100 s baseline.

human HCAR1 (GPR81) = human HCAR1 (GPR81) (Homo sapiens, UniProt Q9BXC0); settings: cited from earlier work; for EC50 (in words): Dvorak et al. 2012, qualitative statement; for agonist activity at GPR81: Dvorak et al. 2012; for EC50: receptor activation, value from Dvorak et al. 2012
Sequence of human HCAR1 (GPR81) (Q9BXC0 whole entry): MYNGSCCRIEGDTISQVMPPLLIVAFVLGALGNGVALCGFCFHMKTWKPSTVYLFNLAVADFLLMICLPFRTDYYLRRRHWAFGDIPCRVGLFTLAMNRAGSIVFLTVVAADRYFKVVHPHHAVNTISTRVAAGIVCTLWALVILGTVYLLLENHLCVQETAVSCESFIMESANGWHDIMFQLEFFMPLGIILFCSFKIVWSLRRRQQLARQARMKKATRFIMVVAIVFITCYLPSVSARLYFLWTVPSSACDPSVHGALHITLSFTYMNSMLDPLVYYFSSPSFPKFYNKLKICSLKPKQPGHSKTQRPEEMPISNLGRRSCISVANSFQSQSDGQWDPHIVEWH

human HCA1 = human HCA1 (Homo sapiens, UniProt Q9BXC0); settings: compared versus HCA2, Liu et al. 2012; cited from earlier work
Sequence of human HCA1 (Q9BXC0 whole entry): as above

GPR81 [1] = target: T1, GPR81 (Rattus norvegicus, UniProt B9UM24); test: FRET nano-sensor (Epac1-camps / AKAR2) measurement of cytosolic cAMP in single cultured astrocytes, GPR81 ligands; assay type: cell-based; settings: for n decrease (cells with cAMP decrease): number of astrocytes responding with cAMP decrease; for n increase (cells with cAMP increase): number of astrocytes responding with cAMP increase; for n unresponsive (cells): number of unresponsive astrocytes; for % decrease (cells with cAMP decrease) / % increase (cells with cAMP increase) / % unresponsive (cells): share of all astrocytes tested; for responsiveness of cells (cAMP): compared with the high affinity molecule 3cl5hi
T1 construct: endogenous in cells; host or cells: cultured primary rat astrocytes transfected only with the cAMP sensors Epac1-camps or AKAR2
T1 sequence (B9UM24 1-351): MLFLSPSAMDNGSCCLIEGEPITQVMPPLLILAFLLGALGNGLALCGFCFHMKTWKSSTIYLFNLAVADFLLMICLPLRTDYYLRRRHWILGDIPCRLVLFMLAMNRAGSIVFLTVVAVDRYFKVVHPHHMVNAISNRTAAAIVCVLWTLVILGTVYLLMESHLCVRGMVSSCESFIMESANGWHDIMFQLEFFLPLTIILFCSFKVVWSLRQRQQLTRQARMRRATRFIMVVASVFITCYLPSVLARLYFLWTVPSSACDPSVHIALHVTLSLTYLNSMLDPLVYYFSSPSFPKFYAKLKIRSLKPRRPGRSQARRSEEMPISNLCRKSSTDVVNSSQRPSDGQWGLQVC
Description: as §1, §2, §3, §4, §5, §6

GPR81 [2] = target: T1, GPR81; settings: from European Patent Application No. 13 173 446, cited from earlier work

Row | Compound | EC50 (in words) (human HCAR1 (GPR81)) | n decrease (cells with cAMP decrease) (GPR81 [1]) | n increase (cells with cAMP increase) (GPR81 [1]) | n unresponsive (cells) (GPR81 [1]) | % decrease (cells with cAMP decrease) (GPR81 [1]) | % increase (cells with cAMP increase) (GPR81 [1]) | % unresponsive (cells) (GPR81 [1]) [%] | further results
1 | NC[C@H](O)c1ccc(O)c(O)c1 [Norepinephrine] | – | – | – | – | – | – | – | n decrease (cells with cAMP decrease) (Adrener.; number of astrocytes responding with cAMP decrease): 0 (0%); n increase (cells with cAMP increase) (Adrener.; number of astrocytes responding with cAMP increase): 11; n unresponsive (cells) (Adrener.; number of unresponsive astrocytes): 3; % decrease (cells with cAMP decrease) (Adrener.; share of all astrocytes tested): 0 (0%); % increase (cells with cAMP increase) (Adrener.; share of all astrocytes tested): (79%); % unresponsive (cells) (Adrener.; share of all astrocytes tested): 21%
2 | O=C(O)c1cc(O)cc(-c2ccccc2)c1 [ph, 3-phenyl-5-hydroxybenzoic acid] | relatively high EC50 | – | – | – | – | – | – | –
3 | O=C(O)c1cc(O)cc(F)c1 [Ligand 3f5hi, 3-fluoro-5-hydroxybenzoic acid, reference compound] | relatively low EC50 | – | – | – | – | – | – | agonist activity at GPR81 (human HCAR1 (GPR81)): agonists
4 | O=C(O)c1cc(O)cc(O)c1 [oh, 3,5-dihydroxybenzoic acid] | – | – | – | – | – | – | – | selectivity for human HCA1 (human HCA1): selective agonist
5 | O=C(O)c1cc(O)cc(Cl)c1 [Ligand 3cl5hi, 3-chloro-5-hydroxybenzoic acid, reference compound] | relatively low EC50 | 0 (0%) | 21 | 14 | 0 (0%) | (60%) | 40 | agonist activity at GPR81 (human HCAR1 (GPR81)): agonists; intracellular cAMP levels in astrocytes (FRET ratio YFP/CFP) (GPR81 [2]; 500 μM 3-Cl-5-HBA, AKAR2 sensor, FIG. 9d): increases intracellular cAMP levels
6 | Lactic acid/lactate [lakta] | – | – | – | – | – | – | – | intracellular cAMP levels in astrocytes (FRET ratio YFP/CFP) (GPR81 [2]; 20 mM lactate, Epac1-camps and AKAR2 sensors, FIG. 9b-c): increases intracellular cAMP levels
7 | COc1cc(O)cc(C(=O)O)c1 [metoxi, 3-methoxy-5-hydroxybenzoic acid] | relatively high EC50 | 3 | 34 | 15 | 6% | (65%) | 29 | responsiveness of cells (cAMP) (GPR81 [1]): responded much better; EC50 (human HCAR1 (GPR81)): > 1 mM
8 | CC(C)(C)c1cc(O)cc(C(=O)O)c1 [but, 3-tertbutyl-5-hydroxybenzoic acid] | relatively high EC50 | 4 | 29 | 6 | 10% | (75%) | 15 | responsiveness of cells (cAMP) (GPR81 [1]): responded much better; EC50 (human HCAR1 (GPR81)): > 1 mM

Source: US11231410B2, “Method for identifying a compound useful in mitigating and/or the treatment of a disease associated with abnormal astrocytic function” (Celica BIOMEDICAL, priority 2015, dated 2022)
